Laboratory results published in PubChem BioAssay (NCI).
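Method: 48-hour compound exposure of cells in 96-well plates, five concentrations, linear interpolation of endpoints. Abbreviation: GI50, concentration required for 50% inhibition of growth. At the TGI there is no net growth.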

Tests used:
Experiment in all cases: DTP human tumour cell line panel, 48 h
U251 CNS = system: U251 CNS
HOP-92 NSCLC = system: HOP-92 NSCLC
SK-OV-3 ovarian = system: SK-OV-3 ovarian
ACHN renal = system: ACHN renal
SF-539 CNS = system: SF-539 CNS
CCRF-CEM leukemia = system: CCRF-CEM leukemia
MOLT-4 leukemia = system: MOLT-4 leukemia
RXF 393 renal = system: RXF 393 renal
SF-268 CNS = system: SF-268 CNS
MDA-N = system: MDA-N
T-47D breast = system: T-47D breast

Compound | TGI (U251 CNS) [µM] | TGI (HOP-92 NSCLC) [µM] | TGI (SK-OV-3 ovarian) [µM] | TGI (ACHN renal) [µM] | TGI (SF-539 CNS) [µM] | TGI (CCRF-CEM leukemia) [µM] | TGI (MOLT-4 leukemia) [µM] | TGI (RXF 393 renal) [µM] | TGI (SF-268 CNS) [µM] | TGI (MDA-N) [µM] | TGI (T-47D breast) [µM] | GI50 (SF-268 CNS) [µM] | GI50 (U251 CNS) [µM] | GI50 (HOP-92 NSCLC) [µM] | GI50 (SK-OV-3 ovarian) [µM] | GI50 (SF-539 CNS) [µM] | GI50 (CCRF-CEM leukemia) [µM] | GI50 (MOLT-4 leukemia) [µM] | GI50 (RXF 393 renal) [µM]
CC1OC=CC(=O)C1O (configuration not stated) | > 100 | > 100 | > 100 | > 100 | > 100 | > 100 | > 100 | > 100 |  |  |  |  |  |  |  |  |  |  | 
O=C(NCc1ccccc1)c1c(O)c2ccccc2[nH]c1=O | > 100 | > 100 |  | > 100 | > 100 | > 100 | > 100 | > 100 | > 100 | > 100 |  |  |  |  |  |  |  |  | 
O=C(C=P(c1ccccc1)(c1ccccc1)c1ccccc1)c1ccc(-c2ccc(F)cc2F)cc1 | 13.9 | 7.24 | 8.63 | 6.76 | 10.8 | 7.06 |  | 7.29 | 15.5 | 8.8 | 7.58 |  |  |  |  |  |  |  | 
CC(C)c1nccn1Cc1ccc(Cl)cc1Cl | > 100 | > 100 | > 100 | > 100 | > 100 |  |  |  | > 100 | > 100 |  |  |  |  |  |  |  |  | 
c1ccc(COc2cccc3cccnc23)cc1 |  | > 100 | > 100 | > 100 | > 100 | > 100 | > 100 | > 100 | 88.4 |  |  |  |  |  |  |  |  |  | 
C[n+]1c(-c2ccc(/C=N/Nc3ccnc(N/N=C/c4ccc(-c5cn6ccccc6[n+]5C)cc4)n3)cc2)cn2ccccc21 |  |  | > 100 | 54.4 | 40.1 |  | > 100 |  | > 100 | > 100 | > 100 |  |  |  |  |  |  |  | 
CCCCCCCCCCCCCCCCNc1ccn(C2CC(OP(=O)(O)OCC3OC(n4cc(CC)c(=O)[nH]c4=O)CC3O)C(CO)O2)c(=O)n1 (configuration not stated) | 89.3 | > 100 | 82.1 | > 100 | 34.4 |  | 41.3 | 46.4 | 33.5 |  | > 100 |  |  |  |  |  |  |  | 
CN(CCN(C)C(=O)CCn1ccc(=O)[nH]c1=O)C(=O)CCn1ccc(=O)[nH]c1=O | > 100 |  |  | > 100 | > 100 | > 100 | > 100 | > 100 | > 100 |  |  |  |  |  |  |  |  |  | 
O=C(NC/C=C/Br)NC1CCNc2ccccc21 (configuration not stated) | > 100 |  | > 100 | > 100 | 45.8 | > 100 | 95.4 | > 100 | > 100 | > 100 | 93.9 |  |  |  |  |  |  |  | 
O=C(Nc1nc(C23CC4CC(CC(C4)C2)C3)cs1)c1cc2cc([N+](=O)[O-])ccc2oc1=O | > 100 | > 100 |  | > 100 | > 100 | > 100 | > 100 | 74.8 | > 100 | > 100 |  |  |  |  |  |  |  |  | 
C=C1CC(OC)(C(O)C(=O)N[C@H]2OCO[C@H]3C2O[C@H](C[C@H](O)COC)C(C)(C)C3OC)O[C@H](C)[C@@H]1C (some centres not stated) | > 0.00772 |  |  |  | > 0.00772 | > 0.00772 | > 0.00772 | > 0.00772 | > 0.00772 |  |  |  |  |  |  |  |  |  | 
O=S(=O)(/N=C1/SC(=Nc2ccccc2)N(c2ccccc2)/C1=N/S(=O)(=O)c1ccccc1)c1ccccc1 | 70.7 | 62.9 |  | 68.7 |  | 55 | 62.2 |  |  | 34.4 |  |  |  |  |  |  |  |  | 
c1ccc(-c2[nH]c(-c3ccccc3)c(-c3cnccn3)c2-c2cnccn2)cc1 | > 100 | > 100 | > 100 | > 100 | > 100 | > 100 | > 100 | > 100 | > 100 |  |  |  |  |  |  |  |  |  | 
CC1(C)Oc2ccc3c(=O)c4ccccc4oc3c2C1C(=O)O (configuration not stated) | > 100 |  | > 100 |  | > 100 | > 100 | > 100 | > 100 | > 100 | > 100 | > 100 |  |  |  |  |  |  |  | 
CC1(C)CC(=O)C(=CN2C(=O)CNC2=S)C(=O)C1 | > 100 | > 100 | > 100 | > 100 | > 100 | > 100 | > 100 | > 100 | > 100 | > 100 |  |  |  |  |  |  |  |  | 
Oc1ccc2ccccc2c1OCc1nnc(CCCCCCCCc2nnc(COc3c(O)ccc4ccccc34)o2)o1 | > 100 | > 100 | > 100 | > 100 |  |  | > 100 | > 100 | > 100 | > 100 |  |  |  |  |  |  |  |  | 
NC1CCCCC1N.O=S(=O)([O-])CCCN1CCN(CCO)CC1.O=S(=O)([O-])CCCN1CCN(CCO)CC1.[Pt+4] | > 100 | 59.3 | > 100 |  | > 100 | > 50.5 | 20.6 | 82.5 | > 78 |  |  | 3.72 | 14.9 | 19 | > 87.2 | 10.7 | 2.21 | 0.587 | 15.9
CC(=O)[C@H]1CCC2[C@@H]3CC=C4C(O)C(OS(=O)(=O)O)CC[C@]4(C)C3CC[C@@]21C (some centres not stated) | > 100 | > 100 | > 100 |  | > 100 | > 100 | > 100 | > 100 | > 100 |  |  |  |  |  |  |  |  |  | 
CC1(C)O[C@@H](CP(c2cccc3ccccc23)c2cccc3ccccc23)[C@H](CP(c2cccc3ccccc23)c2cccc3ccccc23)O1 | > 100 |  | > 100 | > 100 |  | > 100 | > 100 | > 100 | > 100 | > 100 | > 100 |  |  |  |  |  |  |  | 
Cc1cccc2c1C(=O)[C@@](C)([C@]1(C)Nc3cccc(C)c3C1=O)N2 | > 100 |  | > 100 | > 100 | > 100 | > 100 | > 100 | > 100 | > 100 | > 100 | > 100 |  |  |  |  |  |  |  | 
CCOC(=O)c1c(-c2ccc(OC)c(O)c2)c(C#N)c(=S)n(C2OC(CO)C(O)C(O)C2O)c1-c1ccccc1 (configuration not stated) | > 100 |  |  | > 100 |  | > 100 | > 100 | > 100 | > 100 | > 100 |  |  |  |  |  |  |  |  | 
Cn1c(=O)c2[nH]c(CCC(=O)O)nc2n(C)c1=O | > 100 | > 100 | > 100 | > 100 | > 100 | > 100 |  | > 100 | > 100 | > 100 | > 100 |  |  |  |  |  |  |  | 
